Experiment [1] addresses T1, TEC (Homo sapiens, UniProt P42680).
T1 sequence (P42680 1-631): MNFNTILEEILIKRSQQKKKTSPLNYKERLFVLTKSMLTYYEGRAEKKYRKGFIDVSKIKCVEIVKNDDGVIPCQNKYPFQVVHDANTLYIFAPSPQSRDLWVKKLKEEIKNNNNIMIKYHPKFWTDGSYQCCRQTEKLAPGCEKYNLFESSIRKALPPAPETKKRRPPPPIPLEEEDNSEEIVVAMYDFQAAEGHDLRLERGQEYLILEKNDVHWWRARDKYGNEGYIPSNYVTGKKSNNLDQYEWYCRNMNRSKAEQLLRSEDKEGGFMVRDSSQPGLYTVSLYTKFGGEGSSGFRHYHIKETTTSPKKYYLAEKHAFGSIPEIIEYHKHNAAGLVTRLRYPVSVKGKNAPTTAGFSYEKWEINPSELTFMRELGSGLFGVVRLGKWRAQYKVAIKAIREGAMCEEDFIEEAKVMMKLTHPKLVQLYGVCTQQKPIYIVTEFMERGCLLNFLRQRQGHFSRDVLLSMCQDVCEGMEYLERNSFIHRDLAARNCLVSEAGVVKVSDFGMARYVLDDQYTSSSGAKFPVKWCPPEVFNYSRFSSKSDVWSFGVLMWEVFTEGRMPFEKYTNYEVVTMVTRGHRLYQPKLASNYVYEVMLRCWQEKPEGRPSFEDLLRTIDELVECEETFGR
The experiment is described as follows: LanthaScreen Eu kinase binding assay. Also noted: purchased Thermo Fisher Scientific (Invitrogen LanthaScreen service). To be noted: 60 min preincubation. The protocol: In all the assays, each test compound was preincubated with peptide/kinase mixture or kinase/antibody mixture for 60 min at room temperature before adding the ATP solution or AlexaFluor labeled Tracer to initiate the 60-min incubation of the reactants.
On the technique in general: Time-resolved FRET reads energy transfer from a long-lived donor to a nearby acceptor.

Experiment [2] addresses CSK (Homo sapiens, UniProt P41240). The experiment in a line: KinAffinity cell-based binding assay using PBMC. Also noted: purchased Carna Biosciences Inc.
The target of experiment [3] is BTK (Homo sapiens, UniProt Q06187). The experiment in a line: In vivo pharmacodynamics: BTK phosphorylation in TMD8 xenograft tumors (flow cytometry). Also noted: endogenous in cells; host or cells: TMD8 tumour cells from subcutaneous xenografts in SCID mice. The settings on record: TMD8, mouse, 1 h after final administration, read-out: BTK phosphorylation inhibition rate in tumor. The protocol: One hour after the final dosing, mice underwent laparotomy under isoflurane anesthesia and were sacrificed by exsanguination; tumors were collected. After measuring the wet weight, each tumor was placed on a 70-μm cell strainer (BD Falcon, Franklin Lakes, NJ, USA) placed in one well of a six-well plate on ice. After adding an amount of precooled culture medium, tumor cells were detached. The cell suspension was transferred to a tube and centrifuged for 8 min at 400 × g. Supernatant was excluded by aspiration, and cells were resuspended in culture medium. The tumor suspension was diluted with culture medium to a cell density of 1.0 × 10^6 cells/mL and pipetted into a 96-well plate. […] Cells were incubated for a further 10 min. Fix Buffer 1 (BD Biosciences, Franklin Lakes, NJ, USA) was added to each well, and the plate was centrifuged for 8 min at 400 × g at room temperature; the supernatant was removed by decantation. Each sample was washed twice with Perm Wash Buffer (BD Biosciences) before the addition of rabbit monoclonal p-BTK antibody (Tyr-223) (Novus Biologicals, #NB100-79907) diluted 500-fold with Perm Wash Buffer and 30-min incubation in the dark at room temperature. Cells underwent two rounds of Perm Wash buffer washes and centrifugation before the addition of the secondary antibody (100 μL Alexa Fluor 488 [Fab’] 2 fragments of goat anti-rabbit IgG [H+L]; Thermo Fisher Scientific) diluted 5,000-fold with Perm Wash buffer. After a 30-min incubation in the dark at room temperature, cells were washed once more and suspended with Stain Buffer (BD Biosciences). Cytomics FC500 MPL and data analysis software CXP Analysis (both from Beckman Coulter K.K, Shizuoka, Japan) were used for flow cytometry analysis. A gate containing the cell population of interest was created in a forward scatter and side scatter dot plot. […] The 7-AAD-positive cell rate (%) and the mean fluorescent intensity of BTK phosphorylation in cells in the relevant gate were measured. […]
A general note: Flow cytometry measures light scatter and fluorescence of single cells or particles in a stream.

Experiment [4] deals with T-cells in human PBMC. The experiment in a line: PBMC stimulation assay, anti-CD3/CD28-stimulated T-cell activation (CD69). Type of experiment: cell-based. The settings on record: 16 h, up to the highest concentration of 10 μM. As to the method: After culturing, the stimulated cells were stained with fluorescently labeled CD3, CD20, and CD69 antibodies. B-cells (identified by gating CD20-positive and CD3-negative cells) and T-cells (identified by gating CD3-positive and CD20-negative cells) were analyzed by flow cytometry to monitor the expression of CD69. […] GraphPad Prism version 5.04 (GraphPad Software, Inc., San Diego, CA, USA) and its base settings were used for initial values and convergence conditions.

Some results are limits rather than exact numbers.

Chain of BTK (Q06187 whole entry): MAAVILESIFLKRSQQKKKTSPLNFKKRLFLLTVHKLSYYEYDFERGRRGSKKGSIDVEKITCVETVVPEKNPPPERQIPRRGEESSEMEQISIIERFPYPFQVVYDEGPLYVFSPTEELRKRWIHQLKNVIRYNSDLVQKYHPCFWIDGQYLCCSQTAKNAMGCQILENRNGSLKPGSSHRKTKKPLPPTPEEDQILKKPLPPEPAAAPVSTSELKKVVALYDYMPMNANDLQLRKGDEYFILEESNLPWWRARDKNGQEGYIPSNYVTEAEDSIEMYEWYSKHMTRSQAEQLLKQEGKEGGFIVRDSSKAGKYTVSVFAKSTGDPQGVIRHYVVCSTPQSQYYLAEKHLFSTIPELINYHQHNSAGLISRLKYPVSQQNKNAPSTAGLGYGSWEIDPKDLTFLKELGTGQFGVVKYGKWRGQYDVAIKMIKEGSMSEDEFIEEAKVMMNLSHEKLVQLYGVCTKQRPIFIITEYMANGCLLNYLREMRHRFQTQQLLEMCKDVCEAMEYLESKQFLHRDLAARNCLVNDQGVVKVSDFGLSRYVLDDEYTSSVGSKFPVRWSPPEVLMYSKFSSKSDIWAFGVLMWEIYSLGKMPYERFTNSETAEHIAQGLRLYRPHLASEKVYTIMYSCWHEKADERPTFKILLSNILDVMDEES
Chain of CSK (P41240 whole entry): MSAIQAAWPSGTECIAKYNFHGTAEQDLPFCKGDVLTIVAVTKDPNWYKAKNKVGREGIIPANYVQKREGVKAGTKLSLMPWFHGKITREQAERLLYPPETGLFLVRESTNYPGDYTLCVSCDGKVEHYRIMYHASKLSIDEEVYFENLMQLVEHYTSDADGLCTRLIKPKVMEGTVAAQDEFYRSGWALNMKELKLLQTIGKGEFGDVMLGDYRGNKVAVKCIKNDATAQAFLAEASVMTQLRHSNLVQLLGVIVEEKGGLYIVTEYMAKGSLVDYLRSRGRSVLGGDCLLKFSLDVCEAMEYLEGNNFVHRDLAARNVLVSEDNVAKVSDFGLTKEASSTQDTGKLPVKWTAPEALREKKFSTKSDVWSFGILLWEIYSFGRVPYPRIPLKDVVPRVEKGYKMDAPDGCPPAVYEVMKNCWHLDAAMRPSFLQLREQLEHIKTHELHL

Take `C=CC(=O)N1CCC([C@@H]2CCNc3c(C(N)=O)c(-c4ccc(Oc5ccccc5)cc4)nn32)CC1` [Zanubrutinib]: in experiment [1], the IC50 stood at 4.47 nM.
`CC#CC(=O)N1CC[C@@H](n2c(=O)n(-c3ccc(Oc4ccccc4)cc3)c3c(N)ncnc32)C1` [Tirabrutinib] showed a dissociation constant Kd in experiment [2] of over 3000 nM. In experiment [3] (1 mg/kg BID 21 days), the inhibition at 1 mg/kg came to 64%. Also, the inhibition at 3 mg/kg in experiment [3] (3 mg/kg BID 21 days) is 79.2%. Further, the inhibition at 10 mg/kg in experiment [3] (10 mg/kg BID 21 days) is 85.4%. Further, the “inhibition of anti-CD3/CD28-stimulated T-cell activation (CD69)” value in experiment [4] is recorded as “did not inhibit”.

Broadly, the IC50 is the point on the concentration scale where inhibition reaches its midpoint. What is called Kd is the constant that tells how readily two partners part at equilibrium. Lower therefore signals tighter binding. Broadly, the inhibition is the change of the read-out against control, counted positive when it falls.

(Values after article PMC10004634 (PLOS ONE, 2023).)
